Blank lines part the entries; values can stand above or below the compound they belong to. Activity calls are given as the source filed them. The rule behind the calls is not given here.
Experiments:
[1] = test system: HeLa; assay: Upregulation of NKG2D ligand expression in human HeLa cells after 48 hrs by immunofluorescence staining-based flow cytometric analysis; type: functional, cell-based
[2] = test system: HeLa; assay: Upregulation of DNAM1 ligand expression in human HeLa cells after 48 hrs by immunofluorescence staining-based flow cytometric analysis; type: functional, cell-based
[3] = molecular target: Protein smoothened (Mus musculus) (UniProt P56726); assay: Antagonist activity at smo receptor in mouse NIH3T3 Shh-Light II cells assessed as inhibition of SAG-induced hedgehog pathway after 48 hrs by dual luciferase reporter gene assay; type: cell-based
Protein smoothened (Mus musculus), sequence (P56726 whole entry): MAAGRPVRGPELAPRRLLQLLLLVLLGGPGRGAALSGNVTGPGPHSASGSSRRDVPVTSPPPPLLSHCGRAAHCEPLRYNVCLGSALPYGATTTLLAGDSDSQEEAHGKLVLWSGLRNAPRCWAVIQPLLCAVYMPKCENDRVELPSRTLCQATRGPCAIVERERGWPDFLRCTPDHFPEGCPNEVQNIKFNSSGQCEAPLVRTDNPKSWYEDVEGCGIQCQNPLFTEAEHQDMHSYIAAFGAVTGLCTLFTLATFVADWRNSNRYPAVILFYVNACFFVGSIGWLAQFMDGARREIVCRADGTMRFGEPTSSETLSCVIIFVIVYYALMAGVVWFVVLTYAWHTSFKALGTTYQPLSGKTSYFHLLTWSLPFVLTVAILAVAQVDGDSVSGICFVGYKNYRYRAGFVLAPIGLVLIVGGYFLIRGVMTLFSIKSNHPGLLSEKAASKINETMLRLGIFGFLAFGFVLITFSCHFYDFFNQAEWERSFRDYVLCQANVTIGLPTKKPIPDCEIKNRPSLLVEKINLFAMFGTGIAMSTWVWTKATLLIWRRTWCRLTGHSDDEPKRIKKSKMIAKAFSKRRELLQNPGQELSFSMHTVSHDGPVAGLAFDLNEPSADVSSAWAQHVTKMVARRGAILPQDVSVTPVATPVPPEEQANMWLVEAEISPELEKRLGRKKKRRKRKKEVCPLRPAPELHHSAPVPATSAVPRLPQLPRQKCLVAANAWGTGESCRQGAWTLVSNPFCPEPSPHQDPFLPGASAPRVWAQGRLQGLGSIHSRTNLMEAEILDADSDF

[4] = Intrinsic clearance in human liver microsomes assessed per mg of protein preincubated for 10 mins followed by NADP/Glc6P/G6P-DH addition by LC-MS/MS analysis; type: ADME; details: read-out: CLH
[5] = Intrinsic clearance in mouse liver microsomes assessed per mg of protein preincubated for 10 mins followed by NADP/Glc6P/G6P-DH addition by LC-MS/MS analysis; type: ADME; details: read-out: CLH
[6] = test system: NCI-H1975; assay: Cytotoxicity against human NCI-H1975 cells assessed as growth inhibition after 72 hrs by CellTiter-Fluor assay; type: functional, cell-based; details: NCI-H1975, 72 h
[7] = test system: RD; assay: Cytotoxicity against human RD cells assessed as growth inhibition after 48 hrs by MTT assay; type: functional, cell-based
[8] = test system: PC-3; assay: Cell cycle arrest in human PC3 cells assessed as accumulation at G2/M phase at 500 to 2000 nM after 24 hrs by propidium iodide staining-based flow cytometric analysis; type: functional
[9] = test system: RD; assay: Cell cycle arrest in human RD cells assessed as accumulation at G2/M phase at 500 to 2000 nM after 24 hrs by propidium iodide staining-based flow cytometric analysis; type: functional
[10] = test system: HepG2; assay: Cell cycle arrest in human HepG2 cells assessed as accumulation at G2/M phase at 500 to 2000 nM after 24 hrs by propidium iodide staining-based flow cytometric analysis; type: functional
[11] = test system: PC-3; assay: Induction of apoptosis in human PC3 cells after 48 hrs by propidium iodide/annexin V-FITC staining-based cytofluorometric analysis; type: functional, cell-based
[12] = test system: HepG2; assay: Induction of apoptosis in human HepG2 cells after 48 hrs by propidium iodide/annexin V-FITC staining-based cytofluorometric analysis; type: functional, cell-based
[13] = test system: RD; assay: Induction of apoptosis in human RD cells at 500 nM after 48 hrs by propidium iodide/annexin V-FITC staining-based cytofluorometric analysis; type: functional, cell-based
[14] = test system: OVCAR-8; assay: cells; details: Homo sapiens, OVCAR-8, 48 h
Description: Cytotoxicity against human OVCAR8 cells assessed as growth inhibition after 48 hrs by SRB assay

[15] = Cytotoxicity against human MESSA cells assessed as growth inhibition after 72 hrs by CellTiter-Glo assay; type: functional, cell-based; details: MES-SA
[16] = Cytotoxicity against human MESSA/DX5 cells assessed as growth inhibition after 72 hrs by CellTiter-Glo assay; type: functional, cell-based; details: MES-SA/Dx5, 72 h
[17] = test system: HeLa; assay: Induction of apoptosis in human HeLa cells at 20 nM after 24 hrs by propidium iodide/annexin V-FITC staining-based cytofluorometric analysis; type: functional, cell-based
[18] = test system: HeLa; assay: Cell cycle arrest in human HeLa cells assessed as accumulation at G2/M phase at 20 nM after 24 hrs by propidium iodide staining-based flow cytometric analysis; type: functional
[19] = test system: HeLa; assay: Cell cycle arrest in human HeLa cells assessed as accumulation at sub-G1 phase at 20 nM after 24 hrs by propidium iodide staining-based flow cytometric analysis; type: functional
[20] = test system: HeLa; assay: Inhibition of microtubule polymerization in human HeLa cells assessed as appearance of tubulin foci and/or small asters of short microtubule fragments at 20 nM after 24 hrs by immunofluorescence staining-based microscopic analysis; type: cell-based
[21] = cells; details: Homo sapiens, NCI/ADR-RES, 48 h
Description: Cytotoxicity against Pgp overexpressing human NCI-ADR-RES cells assessed as growth inhibition after 48 hrs by SRB assay

[22] = test system: PC-3; assay: cells; details: Homo sapiens, PC-3, 48 h
Description: Cytotoxicity against human PC3 cells assessed as growth inhibition after 48 hrs by MTT assay

SMILES: COc1cc(C(=O)c2ccn(-c3cccc(N)c3)c2)cc(OC)c1OC
- Activity [1]: inactive
- Activity [2]: inactive

SMILES: COc1ccc2c(Sc3cc(OC)c(OC)c(OC)c3)c(-c3ccccc3)[nH]c2c1
- inhibition [3]: Dose-dependent effect

SMILES: CCOc1ccc2ccc(=O)oc2c1 [ETHOXYCOUMARIN]
- microsomal CLint [4]: 209 µL/min/mg
- microsomal CLint [5]: 711 µL/min/mg

SMILES: CC[C@]1(O)C[C@@H]2CN(CCc3c([nH]c4ccccc34)[C@@](C(=O)OC)(c3cc4c(cc3OC)N(C)[C@H]3[C@@](O)(C(=O)OC)[C@H](OC(C)=O)[C@]5(CC)C=CCN6CC[C@]43[C@@H]65)C2)C1 [VINBLASTINE]
- IC50 [15]: 0.003 µM
- IC50 [16]: 0.144 µM
- Activity [17]: Active
- Activity [18]: >80%
- Activity [19]: Active
- inhibition [20]: Active
- IC50 [21]: 0.2 µM
- IC50 [22]: 0.766 µM

SMILES: CCC1=C[C@@H]2CN(C1)Cc1c([nH]c3ccccc13)[C@@](C(=O)OC)(c1cc3c(cc1OC)N(C)[C@H]1[C@@](O)(C(=O)OC)[C@H](OC(C)=O)[C@]4(CC)C=CCN5CC[C@]31[C@@H]54)C2 [VINORELBINE]
- IC50 [21]: 5 µM

Continued, in another order:

- inhibition [3]: Dose-dependent effect
SMILES: COc1cc(Sc2c(-c3ccccc3)[nH]c3c(Cl)c(Cl)ccc23)cc(OC)c1OC

- inhibition [3]: Dose-dependent effect
SMILES: COc1cc(Sc2c(-n3ccnc3)[nH]c3ccccc23)cc(OC)c1OC

- IC50 [14]: 0.0037 µM
SMILES: CC(=O)O[C@H]1C(=O)[C@@]2(C)[C@H]([C@H](OC(=O)c3ccccc3)[C@]3(O)C[C@H](OC(=O)[C@H](O)[C@@H](NC(=O)c4ccccc4)c4ccccc4)C(C)=C1C3(C)C)[C@]1(OC(C)=O)CO[C@@H]1C[C@@H]2O [PACLITAXEL]
- IC50 [6]: 0.0025 µM
- IC50 [7]: > 10 µM
- Activity [8]: Active
- Activity [9]: Active
- Activity [10]: Active
- Activity [11]: Dose-dependent effect
- Activity [12]: Dose-dependent effect
- Activity [13]: Active
